Assay [1] concerns the target T1, Cloned human M1 receptor (CHRM1) stably expressed in HEK293 cells (Homo sapiens, UniProt P11229).
T1 construct: expressed in transfected cells; host or cells: HEK293
T1 sequence (P11229 1-460): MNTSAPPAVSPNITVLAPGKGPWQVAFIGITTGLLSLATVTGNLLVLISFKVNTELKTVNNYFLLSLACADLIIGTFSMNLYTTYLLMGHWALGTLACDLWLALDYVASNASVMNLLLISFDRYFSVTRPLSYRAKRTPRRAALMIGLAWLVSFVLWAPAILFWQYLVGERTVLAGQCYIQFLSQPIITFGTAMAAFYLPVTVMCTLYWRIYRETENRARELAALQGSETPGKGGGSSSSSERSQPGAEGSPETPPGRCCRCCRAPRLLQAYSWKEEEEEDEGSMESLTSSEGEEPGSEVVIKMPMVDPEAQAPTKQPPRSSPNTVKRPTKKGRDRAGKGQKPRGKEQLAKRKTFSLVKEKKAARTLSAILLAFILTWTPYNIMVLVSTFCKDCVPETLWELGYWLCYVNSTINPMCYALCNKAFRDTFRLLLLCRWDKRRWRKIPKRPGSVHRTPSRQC
Put plainly: CHRM1 Ca++ Flux Assay (agonist mode, FDSS 7000EX). The assay is classed as cell-based. To be noted: for M1 FDSS PA: Percent Activity; for EC50: geometric mean if tested more than once. The method, boiled down:
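Compounds tested as agonists at 11 concentrations in triplicate, with calcium traces captured over 3 minutes. Cells were HEK293 with stable human CHRM1 expression, plated overnight at 25K/well and loaded with calcium dye. Responses normalized to carbachol EC100 and fitted by four-parameter nonlinear regression.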

In assay [2] the target is T2, human cloned CHRM3 receptor (M3_CHO cells) (Homo sapiens, UniProt P20309).
T2 construct: expressed in transfected cells; host or cells: CHO-K1
T2 sequence (P20309 whole entry): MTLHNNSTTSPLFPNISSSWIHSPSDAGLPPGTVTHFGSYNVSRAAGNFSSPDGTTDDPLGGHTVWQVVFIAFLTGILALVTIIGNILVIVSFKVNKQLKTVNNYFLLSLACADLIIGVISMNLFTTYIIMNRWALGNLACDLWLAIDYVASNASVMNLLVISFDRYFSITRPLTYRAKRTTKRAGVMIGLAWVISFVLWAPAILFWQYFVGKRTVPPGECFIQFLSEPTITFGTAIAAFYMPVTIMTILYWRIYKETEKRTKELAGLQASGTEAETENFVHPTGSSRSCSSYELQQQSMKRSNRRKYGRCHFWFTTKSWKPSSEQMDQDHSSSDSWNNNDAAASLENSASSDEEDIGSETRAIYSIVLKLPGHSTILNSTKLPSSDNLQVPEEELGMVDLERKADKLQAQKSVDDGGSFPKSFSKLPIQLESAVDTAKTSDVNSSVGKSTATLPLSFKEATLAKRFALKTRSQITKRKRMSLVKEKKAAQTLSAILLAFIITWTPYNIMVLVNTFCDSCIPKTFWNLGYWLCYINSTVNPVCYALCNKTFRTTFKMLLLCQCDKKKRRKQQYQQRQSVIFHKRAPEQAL
The assay is described as follows: CHRM3 Ca++ Flux Assay (agonist mode, FDSS 7000EX). The class given is cell-based. To be noted: for M3 FDSS PA: Percent Activity measured to EC100 of Carbachol; for EC50: agonist mode, geometric mean if tested more than once, read-out: M3 FDSS EC50. In outline:
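Fluorescent intracellular Ca++ signal, recorded for 3 min, served as read-out for CHO-K1 cells stably carrying human M3 or M5 receptor. Triplicate 11-point dose responses were averaged and fitted to a four-parameter model, with percent activity referenced to the carbachol EC100.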

Some results are limits rather than exact numbers.

Turning to `O=C(N1CC2(CC[C@@H](N3CCC(c4ccccc4C4(O)CCOCC4)CC3)C2)C1)C1(F)CC1` (single isomer, unassigned) [Example 9H, (R)-(1-fluorocyclopropyl)(6-(4-(2-(4-hydroxytetrahydro-2H-pyran-4-yl)phenyl)piperidin-1-yl)-2-azaspiro[3.4]octan-2-yl)methanone or (S)-(1-fluorocyclopropyl)(6-(4-(2-(4-hydroxytetrahydro-2H-pyran-4-yl)phenyl)piperidin-1-yl)-2-azaspiro[3.4]octan-2-yl)methanone], in assay [1], the “M1 FDSS PA” value is reported as 0% and the EC50 was greater than 25000 nM. Also, in assay [2], the “M3 FDSS PA” value is recorded as 0% and the EC50 was greater than 25000 nM.
`O=C(N1CC2(CC[C@@H](N3CCC(c4cc(F)ccc4C4(O)CCOCC4)CC3)C2)C1)C1(F)CC1` (single isomer, unassigned) [Example 9I, (R)-(6-(4-(5-fluoro-2-(4-hydroxytetrahydro-2H-pyran-4-yl)phenyl)piperidin-1-yl)-2-azaspiro[3.4]octan-2-yl)(1-fluorocyclopropyl)methanone or (S)-(6-(4-(5-fluoro-2-(4-hydroxytetrahydro-2H-pyran-4-yl)phenyl)piperidin-1-yl)-2-azaspiro[3.4]octan-2-yl)(1-fluorocyclopropyl)methanone]: in assay [1], the “M1 FDSS PA” value amounted to 23% and the EC50 was determined as 92 nM. For the same molecule, in assay [2], the “M3 FDSS PA” value is listed as 0% and the EC50 is greater than 25000 nM.
On the same counts, the results for `O=C(N1CC2(CC[C@@H](N3CCC(c4cc(F)ccc4C4(O)CCOCC4)CC3)C2)C1)C1(F)CC1` (single isomer, unassigned) [Example 9J, (R)-(6-(4-(5-fluoro-2-(4-hydroxytetrahydro-2H-pyran-4-yl)phenyl)piperidin-1-yl)-2-azaspiro[3.4]octan-2-yl)(1-fluorocyclopropyl)methanone or (S)-(6-(4-(5-fluoro-2-(4-hydroxytetrahydro-2H-pyran-4-yl)phenyl)piperidin-1-yl)-2-azaspiro[3.4]octan-2-yl)(1-fluorocyclopropyl)methanone] are 3%, 2690 nM, 0% and greater than 25000 nM.
On the same counts, the results for `O=C(N1CC2(CC[C@@H](N3CCC(c4cc(F)ccc4C4CCOCC4)CC3)C2)C1)C1(F)CC1` (single isomer, unassigned) [Example 9K, (R)-(6-(4-(5-fluoro-2-(tetrahydro-2H-pyran-4-yl)phenyl)piperidin-1-yl)-2-azaspiro[3.4]octan-2-yl)(1-fluorocyclopropyl)methanone or (S)-(6-(4-(5-fluoro-2-(tetrahydro-2H-pyran-4-yl)phenyl)piperidin-1-yl)-2-azaspiro[3.4]octan-2-yl)(1-fluorocyclopropyl)methanone] are 58%, 36 nM, −1% and greater than 25000 nM.
The matching figures for `O=C(N1CC2(CC[C@@H](N3CCC(c4cc(F)ccc4C4CCOCC4)CC3)C2)C1)C1(F)CC1` (single isomer, unassigned) [Example 9L, (R)-(6-(4-(5-fluoro-2-(tetrahydro-2H-pyran-4-yl)phenyl)piperidin-1-yl)-2-azaspiro[3.4]octan-2-yl)(1-fluorocyclopropyl)methanone or (S)-(6-(4-(5-fluoro-2-(tetrahydro-2H-pyran-4-yl)phenyl)piperidin-1-yl)-2-azaspiro[3.4]octan-2-yl)(1-fluorocyclopropyl)methanone]: 31%, 569 nM, 0% and greater than 25000 nM.

As a reminder, the EC50 is the concentration that produces a half-maximal response.

Values taken from US12122761B2, “2-azaspiro[3.4]octane derivatives as M4 agonists” (NOVARTIS AG, priority 2019, dated 2024).
